# Reference: ChEMBL document CHEMBL5338784, “Non-steroidal CYP17A1 Inhibitors: Discovery and Assessment” (J Med Chem, 2023)
# Columns and labels:
# [1] = target: T1, Steroid 17-alpha-hydroxylase/17,20 lyase (Homo sapiens, UniProt P05093); experiment: Inhibition of human testicular microsome CYP17; format: ADME, microsomes, Testis
# T1 sequence (P05093 whole entry): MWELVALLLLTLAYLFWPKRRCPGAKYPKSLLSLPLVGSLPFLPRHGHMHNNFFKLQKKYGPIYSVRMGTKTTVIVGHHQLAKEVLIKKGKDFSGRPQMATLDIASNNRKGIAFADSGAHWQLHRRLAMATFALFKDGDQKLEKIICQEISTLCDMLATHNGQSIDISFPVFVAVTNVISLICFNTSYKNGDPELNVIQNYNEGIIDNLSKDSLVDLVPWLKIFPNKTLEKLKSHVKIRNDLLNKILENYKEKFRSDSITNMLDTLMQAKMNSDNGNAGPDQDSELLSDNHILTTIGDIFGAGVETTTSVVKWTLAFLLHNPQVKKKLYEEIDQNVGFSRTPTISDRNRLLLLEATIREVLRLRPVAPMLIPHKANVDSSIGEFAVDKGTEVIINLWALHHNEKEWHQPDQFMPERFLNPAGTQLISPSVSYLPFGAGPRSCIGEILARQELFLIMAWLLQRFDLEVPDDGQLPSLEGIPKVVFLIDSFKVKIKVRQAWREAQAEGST
# [2] = target: T1, Steroid 17-alpha-hydroxylase/17,20 lyase; experiment: Inhibition of human testicular microsomal C17, 20 lyase activity using 17alpha-[1,2,6,7-3H] hydroxyprogesterone; format: microsomes, Testis, Microsome
# [3] = target: T2, Steroid 17-alpha-hydroxylase/17,20 lyase (Rattus norvegicus, UniProt P11715); experiment: Inhibition of rat CYP17; format: ADME
# T2 sequence (P11715 whole entry): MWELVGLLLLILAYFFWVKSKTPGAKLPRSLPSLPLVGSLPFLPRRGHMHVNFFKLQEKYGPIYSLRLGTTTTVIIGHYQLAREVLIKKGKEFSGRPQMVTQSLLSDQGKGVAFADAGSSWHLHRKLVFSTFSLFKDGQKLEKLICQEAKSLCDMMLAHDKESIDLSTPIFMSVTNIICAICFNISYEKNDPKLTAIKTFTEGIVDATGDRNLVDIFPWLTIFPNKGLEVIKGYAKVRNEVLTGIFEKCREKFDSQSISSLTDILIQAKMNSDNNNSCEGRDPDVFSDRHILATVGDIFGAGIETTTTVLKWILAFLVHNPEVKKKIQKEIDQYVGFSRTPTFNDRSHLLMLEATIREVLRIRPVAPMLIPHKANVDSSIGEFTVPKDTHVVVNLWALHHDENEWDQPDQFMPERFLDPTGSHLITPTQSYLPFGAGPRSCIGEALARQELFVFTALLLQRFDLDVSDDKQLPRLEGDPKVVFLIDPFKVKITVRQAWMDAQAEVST
# [4] = target: T1, Steroid 17-alpha-hydroxylase/17,20 lyase; experiment: Inhibition of human CYP17 C17,20-lyase activity; format: ADME
# [5] = target: T2, Steroid 17-alpha-hydroxylase/17,20 lyase; experiment: Binding affinity to Sprague-Dawley rat testicular microsome CYP17A1 assessed as inhibition constant; format: ADME, microsomes, Testis
# [6] = target: Cytochrome P450 3A4 (Homo sapiens, UniProt P08684); experiment: Inhibition of human recombinant CYP3A4; format: ADME
# [7] = target: Cytochrome P450 2D6 (Homo sapiens, UniProt P10635); experiment: Inhibition of human recombinant CYP2D6; format: ADME
# [8] = target: T1, Steroid 17-alpha-hydroxylase/17,20 lyase; experiment: Inhibiton of human CYP17A1 C17, 20 lyase activity expressed in Escherichia coli using [1,2-3H]-17alpha-hydroxyprogesterone as substrate incubated for 15 mins in presence of NADPH generating system; format: ADME
# [9] = test system: Serum; experiment: In vivo inhibition of testosterone in Sprague-Dawley rat assessed as serum testosterone level at 25 mg/kg, po measured after 5 hrs by radioimmuno assay relative to control; format: functional
# [10] = target: T2, Steroid 17-alpha-hydroxylase/17,20 lyase; experiment: Inhibiton of Sprague-Dawley rat testicular microsomal suspension CYP17A1 C17, 20 lyase activity using [1,2-3H]-17alpha-hydroxyprogesterone as substrate incubated for 15 mins in presence of NADPH generating system; format: ADME, microsomes, Testis, Microsome
# [11] = target: T1, Steroid 17-alpha-hydroxylase/17,20 lyase; experiment: Inhibition of human recombinant CYP17A1 C17,20-lyase activity expressed in Escherichia coli using [1,2-3H]-17alpha-hydroxypregnenolone as substrate incubated for 15 mins; format: ADME
# [12] = target: T1, Steroid 17-alpha-hydroxylase/17,20 lyase; experiment: Inhibition of human testicular CYP17; format: ADME, tissue-based, Testis
# [13] = target: T2, Steroid 17-alpha-hydroxylase/17,20 lyase; experiment: Inhibition of rat testicular CYP17; format: ADME, tissue-based, Testis
# [14] = target: T1, Steroid 17-alpha-hydroxylase/17,20 lyase; experiment: Inhibition of human testis C17, 20 lyase activity using 17alpha-[1,2-3H] hydroxyprogesterone incubated for 30 mins in presence of NADPH generating system; format: tissue-based
# [15] = target: T2, Steroid 17-alpha-hydroxylase/17,20 lyase; experiment: Inhibiton of Sprague-Dawley rat testicular microsomal suspension CYP17A1 17-alpha hydroxylase activity using radiolabelled progesterone as substrate preincubated for 5 mins followed by enzyme addition incubated for 15 mins in presence of NADPH generating system; format: ADME, microsomes, Testis, Microsome
# [16] = target: T2, Steroid 17-alpha-hydroxylase/17,20 lyase; experiment: Inhibiton of Sprague-Dawley rat testicular microsomal suspension CYP17A1 C17, 20 lyase activity using radiolabelled 17alpha-hydroxyprogesterone as substrate preincubated for 5 mins followed by enzyme addition incubated for 30 mins in presence of NADPH generating system; format: ADME, microsomes, Testis, Microsome
# [17] = target: T2, Steroid 17-alpha-hydroxylase/17,20 lyase; experiment: Inhibition of Spague-Dawley rat testicular microsome CYP17 using progesterone as substrate preincubated for 5 mins followed by enzyme addition measured after 20 mins in presence of NADPH; format: ADME, microsomes, Testis
# Chain of Cytochrome P450 3A4 (P08684 whole entry): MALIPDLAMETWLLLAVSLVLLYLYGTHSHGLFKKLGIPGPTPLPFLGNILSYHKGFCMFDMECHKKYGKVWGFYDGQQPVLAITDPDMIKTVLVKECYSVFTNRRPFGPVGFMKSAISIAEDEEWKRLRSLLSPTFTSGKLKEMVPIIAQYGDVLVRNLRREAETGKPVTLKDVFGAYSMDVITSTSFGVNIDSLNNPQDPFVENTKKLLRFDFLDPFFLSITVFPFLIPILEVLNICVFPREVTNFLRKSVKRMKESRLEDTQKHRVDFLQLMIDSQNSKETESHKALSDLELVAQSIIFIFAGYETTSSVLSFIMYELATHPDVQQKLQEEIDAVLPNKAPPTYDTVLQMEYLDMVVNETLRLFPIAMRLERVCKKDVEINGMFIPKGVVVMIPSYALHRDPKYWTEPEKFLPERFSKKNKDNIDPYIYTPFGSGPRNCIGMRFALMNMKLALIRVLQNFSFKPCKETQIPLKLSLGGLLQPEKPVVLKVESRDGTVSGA
# Chain of Cytochrome P450 2D6 (P10635 whole entry): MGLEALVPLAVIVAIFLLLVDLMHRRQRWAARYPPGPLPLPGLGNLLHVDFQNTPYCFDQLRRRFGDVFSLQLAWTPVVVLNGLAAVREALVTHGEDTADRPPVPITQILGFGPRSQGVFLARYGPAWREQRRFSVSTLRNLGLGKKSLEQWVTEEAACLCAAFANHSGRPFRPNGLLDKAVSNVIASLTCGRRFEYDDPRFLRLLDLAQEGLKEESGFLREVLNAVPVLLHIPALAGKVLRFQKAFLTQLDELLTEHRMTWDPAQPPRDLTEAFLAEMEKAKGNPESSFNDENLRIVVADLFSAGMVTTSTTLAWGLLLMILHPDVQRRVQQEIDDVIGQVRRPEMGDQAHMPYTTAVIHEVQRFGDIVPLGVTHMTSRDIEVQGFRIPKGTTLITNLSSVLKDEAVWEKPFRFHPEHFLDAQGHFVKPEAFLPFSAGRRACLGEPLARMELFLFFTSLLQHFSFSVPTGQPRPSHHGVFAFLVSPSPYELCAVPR
smiles,measurement,setting,value
c1ccc(-c2ccc(Cn3ccnc3)cc2)cc1,IC50,[1],1000 nM
Brc1cc(Br)c2oc(Cn3ccnc3)cc2c1,IC50,[2],185 nM
COc1ccc2c(c1)CCC(Cc1c[nH]cn1)C2 (stereo not given),IC50,[3],1000 nM
O=c1c(O)cc([C@H]2Oc3cc(O)cc(O)c3C[C@H]2O)cc2c([C@H]3Oc4cc(O)cc(O)c4C[C@H]3O)cc(O)c(O)c12 [THEAFLAVIN],IC50,[4],25000 nM
O=C1c2cc(Cl)ccc2CCC1c1cccnc1 (stereo not given),Ki,[5],300 nM
c1cncc(Nc2ccc(-n3cnc4ccccc43)cc2)c1,IC50,[6],> 10000 nM
same,IC50,[7],> 10000 nM
Cc1c(/C=C/[C@H](C)c2c[nH]cn2)sc2ccc(F)cc12,IC50,[8],21 nM
same,Ct,[9],2%
CC1=C(c2cccnc2)Cc2cc(Cl)ccc21,Ki,[5],40 nM
C(=C\c1cccc(-n2ccnc2)c1)/c1ccccc1,IC50,[10],230 nM
COc1ccc(-c2ccc([C@](O)(c3c[nH]cn3)C(C)C)cc2)cc1OC,IC50,[11],11 nM
CC(c1ccc(-c2ccc(F)cc2)cc1)n1ccnc1 (stereo not given),IC50,[12],240 nM
same,IC50,[13],540 nM
C(=C/c1cccc(Cn2ccnc2)c1)/c1ccccc1,IC50,[10],24 nM
same,Ct,[9],135%
Clc1ccccc1C(c1cc2cc(Br)ccc2o1)n1ccnc1 (stereo not given),IC50,[14],4 nM
Brc1ccc(CCCCCn2ccnc2)cc1,IC50,[15],500 nM
same,IC50,[16],58 nM
COc1cccc2c1CCC(c1ccncc1)C2=O (stereo not given),IC50,[17],13000 nM
